In patent US20070190188A1, “Controlling Toxicity of Aminoquinoline Compounds” (The University of Mississippi, priority 2005, published 2007):

Experiments:
Type in all cases: cell-based
[1] = molecular target: T1, CYP 2D6 (Homo sapiens, UniProt P10635); test: Methemoglobinemic metabolite formation with Baculosomes, CYP 2D6; details: mean ± S.D. of four
T1 construct: purchased; host or cells: insect cells infected with recombinant baculovirus
Description: (§1) This method uses simultaneous incubation of a test compound with the hepatic microsomes or Baculosomes® (microsomes prepared from insect cells infected with recombinant baculovirus containing a cDNA insert for a specific human P450 isozyme and NADPH-P450 reductase) and human erythrocytes followed by determination of methemoglobin formation. This allows the unstable metabolites generated in situ to react with the human erythrocytes.

[2] = molecular target: T2, CYP 2A6 (Homo sapiens, UniProt P11509); test: Methemoglobinemic metabolite formation with Baculosomes, CYP 2A6; details: mean ± S.D. of four
T2 construct: purchased; host or cells: insect cells infected with recombinant baculovirus
T2 sequence (P11509 1-494): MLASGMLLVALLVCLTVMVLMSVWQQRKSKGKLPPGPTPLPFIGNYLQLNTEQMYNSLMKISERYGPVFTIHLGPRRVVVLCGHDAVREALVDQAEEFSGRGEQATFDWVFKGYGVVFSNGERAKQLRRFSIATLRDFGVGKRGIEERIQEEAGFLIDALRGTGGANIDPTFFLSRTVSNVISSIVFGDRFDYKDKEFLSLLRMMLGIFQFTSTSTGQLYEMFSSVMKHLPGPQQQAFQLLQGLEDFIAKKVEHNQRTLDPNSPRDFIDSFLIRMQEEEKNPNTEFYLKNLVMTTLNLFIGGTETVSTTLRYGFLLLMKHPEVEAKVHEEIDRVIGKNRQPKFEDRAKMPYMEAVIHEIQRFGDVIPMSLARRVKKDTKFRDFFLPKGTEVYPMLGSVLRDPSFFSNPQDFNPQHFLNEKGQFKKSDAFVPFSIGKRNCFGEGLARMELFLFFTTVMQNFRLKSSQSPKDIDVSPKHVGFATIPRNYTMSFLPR
Description: as §1

[3] = tested on: human erythrocytes; test: In vitro methemoglobin formation, human erythrocytes, control without microsomes
Description: (§2) In one aspect of the present invention, an in vitro assay is developed for evaluation of biotransformation reactions leading to generation of methemoglobinemic metabolites of 8-aminoquinolines. This method uses simultaneous incubation of a test compound with the hepatic microsomes or Baculosomes® (microsomes prepared from insect cells infected with recombinant baculovirus containing a cDNA insert for a specific human P450 isozyme and NADPH-P450 reductase) and human erythrocytes followed by determination of methemoglobin formation. This allows the unstable metabolites generated in situ to react with the human erythrocytes.

[4] = molecular target: T3, CYP 2E1 (Homo sapiens, UniProt P05181); test: Methemoglobinemic metabolite formation with Baculosomes, CYP 2E1; details: mean ± S.D. of four
T3 construct: purchased; host or cells: insect cells infected with recombinant baculovirus
T3 sequence (P05181 whole entry): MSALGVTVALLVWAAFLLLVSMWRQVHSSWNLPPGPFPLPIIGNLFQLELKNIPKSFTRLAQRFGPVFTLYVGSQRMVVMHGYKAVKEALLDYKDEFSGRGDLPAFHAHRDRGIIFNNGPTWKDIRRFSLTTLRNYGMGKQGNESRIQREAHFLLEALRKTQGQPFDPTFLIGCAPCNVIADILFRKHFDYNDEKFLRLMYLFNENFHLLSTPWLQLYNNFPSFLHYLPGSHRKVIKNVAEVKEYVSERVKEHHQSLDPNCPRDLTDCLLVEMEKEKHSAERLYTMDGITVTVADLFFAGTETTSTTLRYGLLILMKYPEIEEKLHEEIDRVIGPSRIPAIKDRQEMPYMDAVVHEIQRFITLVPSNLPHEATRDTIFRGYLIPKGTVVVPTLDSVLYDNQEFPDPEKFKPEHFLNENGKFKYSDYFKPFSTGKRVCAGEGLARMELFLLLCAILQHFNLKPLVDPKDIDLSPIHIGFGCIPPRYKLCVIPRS
Description: as §1

[5] = molecular target: T4, CPY 2B6 (Homo sapiens, UniProt P20813); test: Methemoglobinemic metabolite formation with Baculosomes, CYP 2B6; details: mean ± S.D. of four
T4 construct: purchased; host or cells: insect cells infected with recombinant baculovirus
T4 sequence (P20813 1-491): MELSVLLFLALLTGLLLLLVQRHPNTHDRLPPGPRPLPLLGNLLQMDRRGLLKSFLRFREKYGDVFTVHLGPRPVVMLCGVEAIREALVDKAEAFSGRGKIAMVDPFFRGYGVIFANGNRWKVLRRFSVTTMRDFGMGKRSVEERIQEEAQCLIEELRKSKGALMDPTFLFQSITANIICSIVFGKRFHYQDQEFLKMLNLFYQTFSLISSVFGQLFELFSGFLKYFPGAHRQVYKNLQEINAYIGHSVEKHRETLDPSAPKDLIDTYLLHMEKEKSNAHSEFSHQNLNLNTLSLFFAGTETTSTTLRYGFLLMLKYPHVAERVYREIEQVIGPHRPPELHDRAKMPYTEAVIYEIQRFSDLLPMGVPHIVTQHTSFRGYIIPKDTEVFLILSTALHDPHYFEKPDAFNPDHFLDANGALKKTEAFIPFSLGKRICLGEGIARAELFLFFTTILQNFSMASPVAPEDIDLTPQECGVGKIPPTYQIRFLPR
Description: as §1

[6] = tested on: Mouse Liver Microsomes; test: In vitro formation of methemoglobinemic metabolites with mouse liver microsomes and human erythrocytes
Description: as §2

T1 sequence (P10635 whole entry): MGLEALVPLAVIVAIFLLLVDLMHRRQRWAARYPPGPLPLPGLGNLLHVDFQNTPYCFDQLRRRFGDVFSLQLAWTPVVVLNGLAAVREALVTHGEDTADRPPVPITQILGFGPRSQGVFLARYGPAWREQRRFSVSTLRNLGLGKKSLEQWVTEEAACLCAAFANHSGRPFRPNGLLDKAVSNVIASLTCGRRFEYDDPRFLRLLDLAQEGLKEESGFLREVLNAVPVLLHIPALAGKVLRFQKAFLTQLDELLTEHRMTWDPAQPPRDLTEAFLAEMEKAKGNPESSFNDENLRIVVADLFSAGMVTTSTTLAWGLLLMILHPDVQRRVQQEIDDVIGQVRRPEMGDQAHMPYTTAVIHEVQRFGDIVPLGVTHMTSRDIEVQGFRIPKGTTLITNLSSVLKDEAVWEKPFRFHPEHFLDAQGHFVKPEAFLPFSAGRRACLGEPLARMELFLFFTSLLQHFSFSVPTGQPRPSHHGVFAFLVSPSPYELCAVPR

SMILES: COc1cc(N[C@H](C)CCCN)c2nccc(C)c2c1Oc1ccc(Cl)c(Cl)c1 [NPC1161B]
- % methemoglobin formed, CYP 2D6 [1]: 5.380 ± 1.402%
- % methemoglobin formed, CYP 2A6 [2]: 2.135 ± 0.530%
- % methemoglobin formed, Supersomes None ([3]; no Baculosomes, mean ± S.D. of four): 0.980 ± 0.493%
- % methemoglobin formation, Control ([3]; no microsomes, drug 100 μM, Mean ± S.D. of four observations): 0.980 ± 0.439%
- % methemoglobin formed, CYP 2E1 [4]: 3.801 ± 1.996%
- % methemoglobin formed, CPY 2B6 [5]: 2.855 ± 0.419%
- formation of methemoglobenemic metabolites, Azithromycin ([6]; Mouse Liver Microsomes, 8-aminoquinoline with Azithromycin): 9.993 ± 1.306
- formation of methemoglobenemic metabolites, Erythromycin ([6]; Mouse Liver Microsomes, 8-aminoquinoline with Erythromycin): 3.133 ± 0.963
- formation of methemoglobenemic metabolites, Microsomes ([6]; Mouse Liver Microsomes, no macrolide): 11.24 ± 3.612
- % methemoglobin formation, Mouse Liver Microsomes ([6]; drug 100 μM, microsomes equivalent to 25 pmoles cytochrome P450, Mean ± S.D. of four): 11.240 ± 3.612%
